# Reference: US20050261472A1, “Binding moieties for fibrin” (Dyax Corp., priority 1999, published 2005)
# Bridge positions count the residues as written; N and C are the ends. Square brackets hold non-standard residues; d marks the D form. Peptide text beside a SMILES is read from it. hSer = N[C@@H](CCO)C(=O)O
# Molecular target: T1, DD(E) (Homo sapiens, UniProt P02671+P02675+P02679)
# T1 construct: host or cells: purchased fibrinogen clotted with thrombin, digested with plasmin, then purified by ammonium sulfate cuts and Sephacryl S200
# Assay: dissociation constant against fibrin-derived polypeptide DD(E)
# Format: binding
# Conditions: cyclic peptides of Table 12; unit inferred; read-out: Kd against DD(E)
# Method: The soluble fibrin-derived polypeptide DD(E) was prepared following a modification of a published method (Moskoitz and Budzynksi, Biochemistry, 33: 12937-12944 (1994) and references therein). Fibrinogen containing a Factor XIII trace impurity (1 g, Grade L; purchased from American Diagnostica) was dissolved in TBS buffer and dialyzed overnight against TBS containing 5 mM citrate. The fibrinogen concentration was adjusted to 3.0 mg/ml and CaCl2 was added to a concentration of 10 mM. Clotting of the fibrinogen was initiated by the addition of thrombin to 0.5 U/ml and the clot was incubated for 3 hours at 37° C. The clot was cut up with a spatula to release water and to concentrate the clot. The clot pieces were washed twice with TBS.Ca buffer (TBS containing 2 mM CaCl2) and were centrifuged at 4,000×g to compact the clots between washes. The clot material was resuspended in 250 ml TBS containing 25 mM CaCl2 and 2 K.I.U. plasmin per mg fibrin. The clots were digested overnight at 20° C. Undigested clot was removed by pipette, and the supernatant was shaken with 10 ml of Lysine Sepharose (Pharmacia) for 30 minutes and filtered to remove the resin. Aprotinin was added to the filtrate to a concentration of 500 U/μL. Ammonium Sulfate was added to 30% saturation and the precipitated protein was removed by centrifugation. More ammonium sulfate was added to the supernatant to a final concentration of 50% saturation, and the precipitated protein was concentrated by centrifugation. The pellets, containing DD(E), were resuspended in a small volume of buffer (50 mM Tris, 150 mM NaCl, 2 mM CaCl2) (<10 ml) and chromatographed on a Sephacryl S200 (Pharmacia) size exclusion column (5×100 cm) in the same buffer. Fractions of protein eluted from the column were assayed by SDS-PAGE for DD(E). DD(E) contains subunits of 55 kD (Fragment E) and 190 kD (Fragment DD). […]
# Dissociation constants were determined against DD(E) as described above.
# T1 sequence (P02671 130-216): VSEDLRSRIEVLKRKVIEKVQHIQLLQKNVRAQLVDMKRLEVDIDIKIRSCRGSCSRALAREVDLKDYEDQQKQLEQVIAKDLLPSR
# T1 sequence (P02675 164-491): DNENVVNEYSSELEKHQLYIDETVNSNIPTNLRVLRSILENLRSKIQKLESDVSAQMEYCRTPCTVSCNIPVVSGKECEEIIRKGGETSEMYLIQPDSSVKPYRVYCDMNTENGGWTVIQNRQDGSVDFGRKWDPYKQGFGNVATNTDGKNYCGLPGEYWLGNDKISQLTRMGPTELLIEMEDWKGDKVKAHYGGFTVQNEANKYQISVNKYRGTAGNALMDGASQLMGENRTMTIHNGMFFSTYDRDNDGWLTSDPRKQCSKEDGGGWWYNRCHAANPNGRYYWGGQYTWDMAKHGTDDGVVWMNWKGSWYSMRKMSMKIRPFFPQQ
# T1 sequence (P02679 114-432): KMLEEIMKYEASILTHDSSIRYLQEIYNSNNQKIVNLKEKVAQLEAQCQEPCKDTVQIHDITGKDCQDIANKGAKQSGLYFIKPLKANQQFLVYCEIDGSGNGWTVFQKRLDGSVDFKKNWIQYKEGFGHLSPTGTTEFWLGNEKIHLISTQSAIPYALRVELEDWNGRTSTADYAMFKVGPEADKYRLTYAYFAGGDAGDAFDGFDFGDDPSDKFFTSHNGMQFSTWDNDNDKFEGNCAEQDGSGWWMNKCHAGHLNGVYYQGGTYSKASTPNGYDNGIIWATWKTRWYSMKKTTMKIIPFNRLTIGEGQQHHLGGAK
# T1 sequence (P02671 36-97): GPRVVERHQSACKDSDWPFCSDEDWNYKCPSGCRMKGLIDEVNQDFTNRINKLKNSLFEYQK
# T1 sequence (P02675 45-152): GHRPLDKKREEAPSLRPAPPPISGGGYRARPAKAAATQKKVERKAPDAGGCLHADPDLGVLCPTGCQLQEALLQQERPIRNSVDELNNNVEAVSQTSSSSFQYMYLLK
# T1 sequence (P02679 27-88): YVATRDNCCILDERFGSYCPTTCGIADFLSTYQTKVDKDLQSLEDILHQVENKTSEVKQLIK
row,Kd [µM],Compound
1,> 500,C[C@@H](O)[C@@H]1NC(=O)CNC(=O)[C@H](Cc2ccc(O)cc2)NC(=O)[C@H](Cc2ccc(O)cc2)NC(=O)[C@H](CC(=O)O)NC(=O)CNC(=O)CNC1=O [(II)] (cyclo(GDYYGTG))

# Same assay, conditions: read-out: Kd DD(E)
row,Kd [µM],Compound
1,12.3,"CC(C)C[C@H](NC(=O)[C@@H]1CSSC[C@H](NC(=O)[C@@H]2CCCN2C(=O)[C@@H](N)CC(C)C)C(=O)N[C@@H](CC(=O)O)C(=O)N[C@@H](Cc2ccc(O)cc2)C(=O)N[C@@H](Cc2ccc(O)cc2)C(=O)N[C@@H](C)C(=O)N[C@@H]([C@@H](C)O)C(=O)N1)C(=O)N[C@@H](CC(=O)O)C(N)=O [SEQ ID NO: 45, LPCDYYATCLD]"
2,0.94,"CC[C@H](C)[C@H](NC(=O)[C@H](Cc1c[nH]c2ccccc12)NC(=O)[C@@H]1CSSC[C@H](NC(=O)[C@H](CCC(=O)O)NC(=O)[C@@H](N)Cc2c[nH]c3ccccc23)C(=O)N2CCC[C@H]2C(=O)N[C@@H](Cc2ccc(O)cc2)C(=O)NCC(=O)N[C@@H](CC(C)C)C(=O)N1)C(=O)N[C@@H](CCC(N)=O)C(N)=O [SEQ ID NO: 61, WECPYGLCWIQ] (H-WECPYGLCWIQ-NH2; disulfide 3-8)"
3,9.8,"CC(C)C[C@H](NC(=O)[C@@H]1CSSC[C@H](NC(=O)[C@@H]2CCCN2C(=O)[C@@H](N)CC(C)C)C(=O)N[C@@H](CO)C(=O)N[C@@H](Cc2ccc(O)cc2)C(=O)N[C@@H](Cc2ccc(O)cc2)C(=O)NCC(=O)N[C@@H]([C@@H](C)O)C(=O)N1)C(=O)N[C@@H](Cc1c[nH]cn1)C(N)=O [SEQ ID NO: 12, LPCSYYGTCLH] (H-LPCSYYGTCLH-NH2; disulfide 3-9)"
4,3.87,"CC[C@H](C)[C@H](NC(=O)[C@H](Cc1c[nH]c2ccccc12)NC(=O)[C@@H]1CSSC[C@H](NC(=O)[C@H](CCC(=O)O)NC(=O)[C@@H](N)Cc2c[nH]c3ccccc23)C(=O)N2CCC[C@H]2C(=O)N[C@@H](Cc2ccc(O)cc2)C(=O)NCC(=O)N[C@@H](CC(C)C)C(=O)N1)C(N)=O [SEQ ID NO: 63, WECPYGLCWI] (H-WECPYGLCWI-NH2; disulfide 3-8; N-terminus and C-terminus assumed)"
5,2.9,"CC(C)C[C@H](NC(=O)[C@@H]1CSSC[C@H](NC(=O)[C@H](C)NC(=O)[C@@H](N)CC(C)C)C(=O)N[C@@H](CC(=O)O)C(=O)N[C@@H](Cc2ccc(O)cc2)C(=O)N[C@@H](Cc2ccc(O)cc2)C(=O)NCC(=O)N[C@@H]([C@@H](C)O)C(=O)N1)C(=O)N[C@@H](CC(=O)O)C(N)=O [SEQ ID NO: 41, LACDYYGTCLD] (H-LACDYYGTCLD-NH2; disulfide 3-9)"
6,4,"CC(C)C[C@H](NC(=O)[C@@H]1CSSC[C@H](NC(=O)[C@@H]2CCCN2C(=O)[C@@H](N)CCCNC(=N)N)C(=O)N[C@@H](CC(N)=O)C(=O)N[C@@H](Cc2ccc(O)cc2)C(=O)N[C@@H](Cc2ccc(O)cc2)C(=O)NCC(=O)N[C@@H]([C@@H](C)O)C(=O)N1)C(=O)N[C@@H](Cc1c[nH]cn1)C(N)=O [SEQ ID NO: 16, RPCNYYGTCLH] (H-RPCNYYGTCLH-NH2; disulfide 3-9)"
7,3.4,"C[C@@H](O)[C@@H]1NC(=O)CNC(=O)[C@H](Cc2ccc(O)cc2)NC(=O)[C@H](Cc2ccc(O)cc2)NC(=O)[C@H](CC(=O)O)NC(=O)[C@@H](NC(=O)[C@@H]2CCCN2C(=O)[C@@H](N)CCCNC(=N)N)CSSC[C@@H](C(=O)N[C@@H](Cc2ccccc2)C(=O)N[C@@H](CC(=O)O)C(N)=O)NC1=O [SEQ ID NO: 8, RPCDYYGTCFD] (H-RPCDYYGTCFD-NH2; disulfide 3-9)"
8,10.1,"CC(C)C[C@H](N)C(=O)N1CCC[C@H]1C(=O)N[C@H]1CSSC[C@@H](C(=O)N[C@@H](C)C(=O)N[C@@H](CC(=O)O)C(N)=O)NC(=O)[C@H]([C@@H](C)O)NC(=O)CNC(=O)[C@H](Cc2ccc(O)cc2)NC(=O)[C@H](Cc2ccc(O)cc2)NC(=O)[C@H](CC(=O)O)NC1=O [SEQ ID NO: 47, LPCDYYGTCAD] (H-LPCDYYGTCAD-NH2; disulfide 3-9)"
9,2,"CC[C@H](C)[C@H](NC(=O)[C@H](Cc1c[nH]cn1)NC(=O)[C@@H]1CSSC[C@H](NC(=O)[C@H](Cc2c[nH]cn2)NC(=O)[C@@H](N)Cc2ccccc2)C(=O)N2CCC[C@H]2C(=O)N[C@@H](Cc2ccc(O)cc2)C(=O)N[C@@H](CC(=O)O)C(=O)N[C@@H](CC(C)C)C(=O)N1)C(N)=O [SEQ ID NO: 60, FHCPYDLCHI] (H-FHCPYDLCHI-NH2; disulfide 3-8; N-terminus and C-terminus assumed)"
10,22,CC(C)C[C@H](NC(=O)[C@@H]1CSSC[C@H](N)C(=O)N[C@@H](CC(=O)O)C(=O)N[C@@H](Cc2ccc(O)cc2)C(=O)N[C@@H](Cc2ccc(O)cc2)C(=O)NCC(=O)N[C@@H]([C@@H](C)O)C(=O)N1)C(N)=O [compound 33] (H-CDYYGTCL-NH2; disulfide 1-7)
11,> 100,H-DYYGT-NH2 [compound 35]
12,> 500,"CC(C)C[C@H](NC(=O)[C@@H]1CSSC[C@H](NC(=O)[C@@H]2CCCN2C(=O)[C@@H](N)CC(C)C)C(=O)N[C@@H](CC(=O)O)C(=O)N[C@@H](Cc2ccc(O)cc2)C(=O)N[C@@H](Cc2ccc(O)cc2)C(=O)NCC(=O)N[C@@H](CCO)C(=O)N1)C(=O)N[C@@H](CC(=O)O)C(N)=O [SEQ ID NO: 50, LPCDYYGHseCLD] (H-LPCDYYG[hSer]CLD-NH2; disulfide 3-9)"
13,38,C[C@@H](O)[C@@H]1NC(=O)CNC(=O)[C@H](Cc2ccc(O)cc2)NC(=O)[C@H](Cc2ccc(O)cc2)NC(=O)[C@H](CC(=O)O)NC(=O)[C@@H](N)CSSC[C@@H](C(N)=O)NC1=O [compound 34] (H-CDYYGTC-NH2; disulfide 1-7)
14,4.5,"CC(C)C[C@H](NC(=O)[C@@H]1CSSC[C@H](NC(=O)[C@@H]2CCCN2C(=O)[C@@H](N)CC(C)C)C(=O)N[C@@H](CC(=O)O)C(=O)N[C@@H](C)C(=O)N[C@@H](Cc2ccc(O)cc2)C(=O)NCC(=O)N[C@@H]([C@@H](C)O)C(=O)N1)C(=O)N[C@@H](CC(=O)O)C(N)=O [SEQ ID NO: 43, LPCDAYGTCLD] (H-LPCDAYGTCLD-NH2; disulfide 3-9)"
15,50,CC(C)C[C@H](NC(=O)[C@@H]1CSSC[C@H](NC(=O)[C@@H]2CCCN2)C(=O)N[C@@H](CC(=O)O)C(=O)N[C@@H](Cc2ccc(O)cc2)C(=O)N[C@@H](Cc2ccc(O)cc2)C(=O)NCC(=O)N[C@@H]([C@@H](C)O)C(=O)N1)C(N)=O [compound 32] (H-PCDYYGTCL-NH2; disulfide 2-8)
16,> 500,"CC(C)C[C@H](NC(=O)[C@@H]1CSSC[C@H](NC(=O)[C@@H]2CCCN2C(=O)[C@@H](N)CC(C)C)C(=O)N[C@@H](CC(=O)O)C(=O)N[C@@H](Cc2ccc(O)cc2)C(=O)N[C@@H](Cc2ccc(O)cc2)C(=O)NCC(=O)N[C@@H](CN)C(=O)N1)C(=O)N[C@@H](CC(=O)O)C(N)=O [SEQ ID NO: 49, LPCDYYGDprCLD]"
17,26,"CC(C)C[C@H](NC(=O)[C@@H]1CSSC[C@H](NC(=O)[C@@H]2CCCN2C(=O)[C@@H](N)CC(C)C)C(=O)N[C@@H](CC(=O)O)C(=O)N[C@@H](Cc2ccc(O)cc2)C(=O)N[C@@H](Cc2ccc(O)cc2)C(=O)NCC(=O)N[C@@H](CO)C(=O)N1)C(=O)N[C@@H](CC(=O)O)C(N)=O [SEQ ID NO: 48, LPCDYYGSCLD] (H-LPCDYYGSCLD-NH2; disulfide 3-9)"
18,3.8,"CC[C@H](C)[C@H](NC(=O)[C@H](Cc1c[nH]cn1)NC(=O)[C@@H]1CSSC[C@H](NC(=O)[C@@H](N)Cc2c[nH]cn2)C(=O)N2CCC[C@H]2C(=O)N[C@@H](Cc2ccc(O)cc2)C(=O)N[C@@H](CC(=O)O)C(=O)N[C@@H](CC(C)C)C(=O)N1)C(=O)N[C@@H](CC(C)C)C(N)=O [SEQ ID NO: 59, HCPYDLCHIL] (H-HCPYDLCHIL-NH2; disulfide 2-7)"
19,6.7,"CC[C@H](C)[C@H](NC(=O)[C@H](Cc1c[nH]cn1)NC(=O)[C@@H]1CSSC[C@H](NC(=O)[C@H](Cc2c[nH]cn2)NC(=O)[C@H](Cc2ccccc2)NC(=O)CN)C(=O)N2CCC[C@H]2C(=O)N[C@@H](Cc2ccc(O)cc2)C(=O)N[C@@H](CC(=O)O)C(=O)N[C@@H](CC(C)C)C(=O)N1)C(=O)N[C@@H](CC(C)C)C(N)=O [SEQ ID NO: 57, GFHCPYDLCHIL] (H-GFHCPYDLCHIL-NH2; disulfide 4-9 (inferred); N-terminus and C-terminus assumed)"
20,2.63,"CC[C@H](C)[C@H](NC(=O)[C@H](Cc1c[nH]cn1)NC(=O)[C@@H]1CSSC[C@H](NC(=O)[C@H](Cc2c[nH]cn2)NC(=O)[C@H](Cc2ccccc2)NC(=O)[C@@H](N)Cc2c[nH]c3ccccc23)C(=O)N2CCC[C@H]2C(=O)N[C@@H](Cc2ccc(O)cc2)C(=O)N[C@@H](CC(=O)O)C(=O)N[C@@H](CC(C)C)C(=O)N1)C(=O)N[C@@H](CC(C)C)C(N)=O [SEQ ID NO: 21, W F H C P Y D L C H I L] (H-WFHCPYDLCHIL-NH2; disulfide 4-9; N-terminus and C-terminus assumed)"

# Same assay, conditions: sequences of phage isolates from TN10-9 and TN6-6 libraries (Table 5); read-out: Kd DD(E)
row,Kd [µM],Compound
1,0.74,QWECPYGLCWIQ [compound 22]
2,1.4,WFHCPYDLCHIL [compound 21]
3,2.7,NHGCYNSYGVPYCDYS [compound 18]
4,~10,RFLCYDSYYHWWCSHH [compound 19]
